Several values for one entry are separate records, joined by “and”; a condition that tells them apart may be missing. Equal entries are not always repeated. Where two headings read alike, the source gives them in different places.
Tests used:
HLA A2 = molecular target: T1, HLA A2 (Homo sapiens, UniProt P04439, D140Y/D185E/D98H/E176V/E277Q/G131W/G231S/I119V/I121R/I166T/I218V/L300P/L318F/N151K/N90K/P208A/P217A/Q86G/Q94H/R138H/R169H/T345S); assay type: cell-based; details: HLA A2 on T2 cells; relative increase in HLA expression vs no peptide at 26° C.
T1 construct: endogenous in cells; host or cells: T2 cells

[1] = system: peptide-sensitized autologous PHA blasts or LCLs; assay type: cell-based, human; set-up: key to CTL response: Y: Yes; ND: Not detected
[2] = system: PBMC from healthy HCMV seropositive donors; assay: IFN-γ ELISPOT assay; assay type: cell-based, human; details: for ELISPOT Responses (SFC/10^6 PBMC): peptide 10 μg/ml
Summary of the method: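 IFN-γ-secreting T cells were counted as spots, with no-peptide control wells subtracted and means taken from triplicate wells. These spots came from healthy seropositive carriers' PBMC, 2.5×10^5 per well.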

[3] = overlapping 20mer peptides, Table 4

| Sequence | MSE (MHC stabilization efficiency) (HLA A2) | CTL response ([1]; predicted epitopes, Table 3) | ELISPOT Responses (SFC/10^6 PBMC) ([2]; donor delta) | ELISPOT Responses (SFC/10^6 PBMC) ([2]; donor seven) | CTL response [1, 3] | also measured |
| --- | --- | --- | --- | --- | --- | --- |
| IIYTRNHEV (human cytomegalovirus IE2 CTL epitope peptide) | + (+ = 51-99%) | Y | SE(137) SFC/10^6 PBMC | 369 SFC/10^6 PBMC |  | peptide concentration required for half maximal lysis, fold more than NLVPMVATV and VLEETSVML epitopes respectively [1]: 100-500 fold; ELISPOT Responses (SFC/10^6 PBMC) ([2]; donor fifteen): 80 SFC/10^6 PBMC |
| SMMWMRFFV (human cytomegalovirus US2 CTL epitope peptide) | ++ (++ = 100-199%) | Y | SE(393) SFC/10^6 PBMC |  |  |  |
| GQTEPIAFV (human cytomegalovirus pp150 CTL epitope peptide) | + (+ = 51-99%) |  |  |  |  | CTL activity of polyclonal CTL line ([1]; donor seven, effector:target ratio 10:1): lower CTL activity |
| AVGGAVASV (human cytomegalovirus gB CTL epitope peptide) | − (− = 0-50%) | Y |  | SB(192) SFC/10^6 PBMC |  |  |
| QEFFWDANDIYRIFAELEGV |  |  |  |  | Y | ELISPOT Responses (SFC/10^6 PBMC) ([2]; donor epsilon): SC(704) SFC/10^6 PBMC; ELISPOT Responses (SFC/10^6 PBMC) ([2]; donor five): CS(107) SFC/10^6 PBMC; ELISPOT Responses (SFC/10^6 PBMC) ([2]; donor gamma): 295 SFC/10^6 PBMC; ELISPOT Responses (SFC/10^6 PBMC) ([2]; donor twelve): 30 SFC/10^6 PBMC |
| ILARNLVPMVATVQGQNLKY |  |  |  | 216 SFC/10^6 PBMC | Y | ELISPOT Responses (SFC/10^6 PBMC) ([2]; donor four): 500 SFC/10^6 PBMC; ELISPOT Responses (SFC/10^6 PBMC) ([2]; donor three): MW(229) SFC/10^6 PBMC |
| VLAELVKQI (human cytomegalovirus IE1 CTL epitope peptide) | ++ (++ = 100-199%) | Y |  | SB(276) SFC/10^6 PBMC |  |  |
| NLVPMVATV [reference compound] |  | Y | 170 SFC/10^6 PBMC | 1202 SFC/10^6 PBMC |  | donors recognizing the epitope in ELISPOT ([2]; cohort of eight HLA A2-positive healthy seropositive donors): recognized by every donor tested; ELISPOT Responses (SFC/10^6 PBMC) ([2]; donor fifteen): 356 SFC/10^6 PBMC and 671 SFC/10^6 PBMC; ELISPOT Responses (SFC/10^6 PBMC) ([2]; donor one): 1201 SFC/10^6 PBMC; ELISPOT Responses (SFC/10^6 PBMC) ([2]; donor seventeen): 271 SFC/10^6 PBMC; ELISPOT Responses (SFC/10^6 PBMC) ([2]; donor six): 1195 SFC/10^6 PBMC; ELISPOT Responses (SFC/10^6 PBMC) ([2]; donor thirteen): 161 SFC/10^6 PBMC |
| LNIPSINVHHYPSAAERKHR |  |  |  |  | Y | ELISPOT Responses (SFC/10^6 PBMC) ([2]; donor sixteen): 222 SFC/10^6 PBMC; ELISPOT Responses (SFC/10^6 PBMC) ([2]; donor twelve): 285 SFC/10^6 PBMC |

— patent US7524503B2, “Human cytomegalovirus (HCMV) cytotoxic T cell epitopes, polyepitopes compositions comprising same and diagnostic and prophylactic and therapeutic uses therefor” (priority 2001, dated 2009)
